The numbers were not newly measured in paper PMC2874326 (Bioconjugate chemistry, 2010), which cites them from elsewhere.

In this data set the test system is cells. The conditions noted are these: relative to Tat and unmodified poly-arginine cell penetrating peptides.

As to C14-βAla-(Arg)7-Cys(SH)-NH2 [MPAP], the “enhancement of peptide entry into cells by myristoylation” value is listed as “several-fold”.
